Key:
Assay in all cases: radiometric filter-binding kinase assay
[1] = target: MAPKAPK5 (human) (UniProt Q8IW41); settings: ATP 20 µM
[2] = target: MAPKAPK2 (human) (UniProt P49137); settings: ATP 20 µM
[3] = target: PI4KA (human) (UniProt P42356)
[4] = target: PHKG1 (human) (UniProt Q16816); settings: ATP 50 µM
[5] = target: FLT1 (human) (UniProt P17948)
[6] = target: IKBKE (human) (UniProt Q14164); settings: ATP 50 µM
[7] = target: EEF2K (human) (UniProt O00418); settings: ATP 5 µM
[8] = target: MELK (human) (UniProt Q14680); settings: ATP 50 µM
Sequence of MELK (human) (Q14680 whole entry, looked up): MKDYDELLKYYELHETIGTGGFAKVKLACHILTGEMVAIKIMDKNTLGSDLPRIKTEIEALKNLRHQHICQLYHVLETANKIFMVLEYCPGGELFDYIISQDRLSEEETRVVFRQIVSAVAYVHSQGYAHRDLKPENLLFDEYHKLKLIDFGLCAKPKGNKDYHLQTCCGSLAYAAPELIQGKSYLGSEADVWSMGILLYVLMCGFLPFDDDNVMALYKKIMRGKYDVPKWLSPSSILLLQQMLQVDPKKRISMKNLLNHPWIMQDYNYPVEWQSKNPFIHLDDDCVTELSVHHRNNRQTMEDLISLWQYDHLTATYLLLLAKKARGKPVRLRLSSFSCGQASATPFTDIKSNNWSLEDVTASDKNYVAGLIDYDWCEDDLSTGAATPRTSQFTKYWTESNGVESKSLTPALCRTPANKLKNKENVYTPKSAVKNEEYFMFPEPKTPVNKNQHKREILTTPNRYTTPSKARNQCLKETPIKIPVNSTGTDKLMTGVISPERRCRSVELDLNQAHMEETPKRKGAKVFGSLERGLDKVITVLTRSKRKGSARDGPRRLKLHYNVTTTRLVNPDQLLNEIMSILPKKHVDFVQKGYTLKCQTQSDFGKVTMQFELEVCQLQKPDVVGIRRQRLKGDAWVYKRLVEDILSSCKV

[9] = target: HIPK2 (human) (UniProt Q9H2X6); settings: ATP 5 µM
[10] = target: MKNK2 (human) (UniProt Q9HBH9); settings: ATP 50 µM
[11] = target: MAPK9 (human) (UniProt P45984); settings: ATP 20 µM
Sequence of MAPK9 (human) (P45984 whole entry, looked up): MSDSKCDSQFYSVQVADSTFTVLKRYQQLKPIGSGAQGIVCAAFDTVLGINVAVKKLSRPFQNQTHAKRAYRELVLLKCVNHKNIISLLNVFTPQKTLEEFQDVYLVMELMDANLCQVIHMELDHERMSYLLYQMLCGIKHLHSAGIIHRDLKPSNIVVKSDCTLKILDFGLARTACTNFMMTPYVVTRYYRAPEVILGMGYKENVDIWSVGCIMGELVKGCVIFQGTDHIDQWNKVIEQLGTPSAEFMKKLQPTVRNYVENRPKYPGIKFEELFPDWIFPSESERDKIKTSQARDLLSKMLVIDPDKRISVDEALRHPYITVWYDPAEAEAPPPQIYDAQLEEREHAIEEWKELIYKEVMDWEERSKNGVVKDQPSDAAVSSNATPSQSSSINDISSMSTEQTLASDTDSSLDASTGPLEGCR

[12] = tested on: AKT1 (human), P31749 [S473D]; settings: ATP 5 µM
[13] = target: MAPK1 (human) (UniProt P28482)
[14] = target: PLK1 (human) (UniProt P53350); settings: ATP 5 µM
[15] = target: MYLK (human) (UniProt Q15746); settings: ATP 50 µM
[16] = target: MAPK14 (human) (UniProt Q16539); settings: ATP 50 µM
[17] = target: PI4KB (human) (UniProt Q9UBF8)
[18] = target: RPS6KB2 (human) (UniProt Q9UBS0); settings: ATP 100 µM
[19] = target: MAPK11 (human) (UniProt Q15759); settings: ATP 20 µM
Sequence of MAPK11 (human) (Q15759 whole entry, looked up): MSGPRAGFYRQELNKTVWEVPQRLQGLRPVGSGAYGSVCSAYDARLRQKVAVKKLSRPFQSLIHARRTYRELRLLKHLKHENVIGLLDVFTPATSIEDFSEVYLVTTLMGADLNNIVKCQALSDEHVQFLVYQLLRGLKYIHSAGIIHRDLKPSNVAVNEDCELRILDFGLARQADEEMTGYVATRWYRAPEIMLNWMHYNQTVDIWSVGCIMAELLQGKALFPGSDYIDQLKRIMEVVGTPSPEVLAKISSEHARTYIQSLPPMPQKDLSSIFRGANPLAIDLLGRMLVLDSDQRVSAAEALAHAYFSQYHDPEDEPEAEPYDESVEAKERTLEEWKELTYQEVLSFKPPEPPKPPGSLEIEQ

[20] = target: PRKAA1 PRKAB2 PRKAG1 (human) (UniProt O43741+Q13131+P54619); settings: ATP 50 µM
Sequence of PRKAA1 PRKAB2 PRKAG1 (human) (O43741 whole entry, looked up): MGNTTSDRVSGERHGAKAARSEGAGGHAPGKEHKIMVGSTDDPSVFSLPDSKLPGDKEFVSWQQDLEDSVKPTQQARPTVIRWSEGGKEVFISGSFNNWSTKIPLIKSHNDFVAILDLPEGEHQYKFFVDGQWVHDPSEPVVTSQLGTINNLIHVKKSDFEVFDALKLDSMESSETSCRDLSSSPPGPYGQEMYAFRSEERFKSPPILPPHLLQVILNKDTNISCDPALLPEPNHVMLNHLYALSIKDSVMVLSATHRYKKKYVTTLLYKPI
Sequence of PRKAA1 PRKAB2 PRKAG1 (human) (P54619 whole entry, looked up): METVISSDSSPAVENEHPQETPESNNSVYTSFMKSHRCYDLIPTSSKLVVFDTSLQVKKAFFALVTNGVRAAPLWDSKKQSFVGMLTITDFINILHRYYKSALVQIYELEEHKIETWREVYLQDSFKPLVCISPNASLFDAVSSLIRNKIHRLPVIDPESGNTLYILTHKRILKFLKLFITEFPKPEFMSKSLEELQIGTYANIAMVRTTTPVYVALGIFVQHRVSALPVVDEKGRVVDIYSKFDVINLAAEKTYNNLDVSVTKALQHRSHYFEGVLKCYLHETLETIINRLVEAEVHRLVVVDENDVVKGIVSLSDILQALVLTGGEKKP
Sequence of PRKAA1 PRKAB2 PRKAG1 (human) (Q13131 whole entry, looked up): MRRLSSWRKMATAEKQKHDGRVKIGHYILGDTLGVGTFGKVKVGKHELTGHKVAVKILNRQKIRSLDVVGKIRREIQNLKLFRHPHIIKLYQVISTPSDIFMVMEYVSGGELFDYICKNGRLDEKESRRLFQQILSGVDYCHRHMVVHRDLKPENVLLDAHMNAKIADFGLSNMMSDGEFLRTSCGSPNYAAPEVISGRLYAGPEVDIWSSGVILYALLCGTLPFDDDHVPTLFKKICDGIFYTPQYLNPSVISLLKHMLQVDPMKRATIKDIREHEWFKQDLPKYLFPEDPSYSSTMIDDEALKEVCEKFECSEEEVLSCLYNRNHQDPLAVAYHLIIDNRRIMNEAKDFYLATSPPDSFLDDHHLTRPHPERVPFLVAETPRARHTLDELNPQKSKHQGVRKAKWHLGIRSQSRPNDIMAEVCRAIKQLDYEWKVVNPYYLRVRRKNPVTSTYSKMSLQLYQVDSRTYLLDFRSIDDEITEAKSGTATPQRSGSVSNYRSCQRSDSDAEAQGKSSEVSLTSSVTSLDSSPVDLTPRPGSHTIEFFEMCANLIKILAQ

[21] = target: DYRK1A (human) (UniProt Q13627); settings: ATP 50 µM
[22] = target: PDPK1 (human) (UniProt O15530)
[23] = target: TBK1 (human) (UniProt Q9UHD2); settings: ATP 50 µM
Sequence of TBK1 (human) (Q9UHD2 whole entry, looked up): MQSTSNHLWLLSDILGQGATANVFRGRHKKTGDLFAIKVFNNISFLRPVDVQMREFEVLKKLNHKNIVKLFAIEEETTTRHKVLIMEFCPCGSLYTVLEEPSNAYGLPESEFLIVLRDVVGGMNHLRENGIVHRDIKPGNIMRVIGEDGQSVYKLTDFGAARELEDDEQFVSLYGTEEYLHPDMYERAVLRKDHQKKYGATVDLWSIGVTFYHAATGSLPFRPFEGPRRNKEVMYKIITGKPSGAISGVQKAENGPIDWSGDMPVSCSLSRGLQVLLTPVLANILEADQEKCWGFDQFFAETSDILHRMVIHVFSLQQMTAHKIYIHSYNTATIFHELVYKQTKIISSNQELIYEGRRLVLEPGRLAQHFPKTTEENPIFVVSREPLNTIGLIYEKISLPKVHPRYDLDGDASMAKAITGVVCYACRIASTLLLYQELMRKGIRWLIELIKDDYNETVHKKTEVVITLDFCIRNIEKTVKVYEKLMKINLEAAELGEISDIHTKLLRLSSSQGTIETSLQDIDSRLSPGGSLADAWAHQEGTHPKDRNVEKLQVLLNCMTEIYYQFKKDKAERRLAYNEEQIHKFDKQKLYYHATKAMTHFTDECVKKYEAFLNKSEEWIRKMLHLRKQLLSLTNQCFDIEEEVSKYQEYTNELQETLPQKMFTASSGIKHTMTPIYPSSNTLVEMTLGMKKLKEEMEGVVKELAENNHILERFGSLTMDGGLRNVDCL

[24] = tested on: RPS6KB1 (human), P23443 [T412E]; settings: ATP 100 µM
[25] = target: MAPK15 (human) (UniProt Q8TD08); settings: ATP 5 µM
[26] = target: PRKCA (human) (UniProt P17252); settings: ATP 20 µM
[27] = tested on: LCK (mouse); settings: ATP 50 µM, accession and sequence are those of the human protein

Sequence of MAPKAPK5 (human) (Q8IW41 whole entry, looked up): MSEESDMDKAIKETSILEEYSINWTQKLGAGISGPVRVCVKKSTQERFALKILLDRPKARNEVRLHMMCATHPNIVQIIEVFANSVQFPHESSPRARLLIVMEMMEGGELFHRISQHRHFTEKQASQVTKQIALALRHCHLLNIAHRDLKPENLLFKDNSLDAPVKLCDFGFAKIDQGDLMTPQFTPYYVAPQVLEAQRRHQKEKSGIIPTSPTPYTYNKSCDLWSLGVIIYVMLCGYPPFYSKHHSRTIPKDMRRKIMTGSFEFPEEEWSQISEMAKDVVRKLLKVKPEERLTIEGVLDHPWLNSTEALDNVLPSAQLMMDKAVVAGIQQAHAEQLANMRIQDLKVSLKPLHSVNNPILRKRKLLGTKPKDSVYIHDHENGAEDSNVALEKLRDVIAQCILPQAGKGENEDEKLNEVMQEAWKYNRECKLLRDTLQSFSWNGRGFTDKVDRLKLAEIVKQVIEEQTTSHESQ
Sequence of EEF2K (human) (O00418 whole entry, looked up): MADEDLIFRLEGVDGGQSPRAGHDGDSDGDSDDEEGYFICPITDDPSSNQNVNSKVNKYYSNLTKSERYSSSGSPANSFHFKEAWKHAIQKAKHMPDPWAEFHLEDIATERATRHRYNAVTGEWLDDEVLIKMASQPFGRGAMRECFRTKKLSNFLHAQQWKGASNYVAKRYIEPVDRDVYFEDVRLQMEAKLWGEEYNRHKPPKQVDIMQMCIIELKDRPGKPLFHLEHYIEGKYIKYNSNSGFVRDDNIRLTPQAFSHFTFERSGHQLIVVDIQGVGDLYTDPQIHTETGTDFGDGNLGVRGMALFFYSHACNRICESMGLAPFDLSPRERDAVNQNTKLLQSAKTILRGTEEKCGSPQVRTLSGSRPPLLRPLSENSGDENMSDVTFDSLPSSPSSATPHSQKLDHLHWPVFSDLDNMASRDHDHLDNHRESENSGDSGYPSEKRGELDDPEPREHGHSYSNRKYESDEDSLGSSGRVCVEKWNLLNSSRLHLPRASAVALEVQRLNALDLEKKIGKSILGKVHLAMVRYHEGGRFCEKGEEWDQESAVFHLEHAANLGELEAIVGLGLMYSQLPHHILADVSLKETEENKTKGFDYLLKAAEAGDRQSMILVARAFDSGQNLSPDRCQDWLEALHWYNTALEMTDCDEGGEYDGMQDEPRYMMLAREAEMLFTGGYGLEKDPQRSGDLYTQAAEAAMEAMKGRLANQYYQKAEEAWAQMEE
Sequence of PHKG1 (human) (Q16816 whole entry, looked up): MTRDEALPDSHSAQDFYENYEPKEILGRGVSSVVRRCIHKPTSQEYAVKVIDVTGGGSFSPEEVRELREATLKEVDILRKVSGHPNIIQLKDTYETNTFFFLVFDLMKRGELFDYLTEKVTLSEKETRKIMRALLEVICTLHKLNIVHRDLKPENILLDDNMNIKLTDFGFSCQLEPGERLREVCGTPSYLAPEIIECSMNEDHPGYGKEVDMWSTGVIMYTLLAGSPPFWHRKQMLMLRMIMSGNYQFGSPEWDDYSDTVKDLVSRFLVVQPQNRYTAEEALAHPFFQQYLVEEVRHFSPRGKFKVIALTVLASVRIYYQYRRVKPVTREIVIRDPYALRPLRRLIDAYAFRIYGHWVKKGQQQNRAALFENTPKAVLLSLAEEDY

In the case of CCc1cncnc1N1CCN(Cc2nc3cc(C(F)(F)F)ccc3[nH]2)CC1, the residual activity ([1]; compound 0.1 µM) is reported as 114%, the residual activity ([1]; compound 1.0 µM) is reported as 97% and the residual activity ([1]; compound 10.0 µM) is reported as 87%. The residual activity ([2]; compound 0.1 µM) was 88%, the residual activity ([2]; compound 1.0 µM) was 105% and the residual activity ([2]; compound 10.0 µM) was 78%. For the same compound, the residual activity ([3]; compound 1.0 µM) was 106%, the residual activity ([3]; compound 10.0 µM) was 102% and the residual activity ([4]; compound 0.1 µM) was 100%. For the same compound, the residual activity ([4]; compound 1.0 µM) was 96%, the residual activity ([4]; compound 10.0 µM) was 104% and the residual activity ([5]; compound 0.1 µM, ATP 20 µM) was 97%. For the same compound, the residual activity ([5]; compound 0.1 µM, ATP 100 µM) was 100%, the residual activity ([5]; compound 1.0 µM, ATP 20 µM) was 83% and the residual activity ([5]; compound 1.0 µM, ATP 100 µM) was 65%. It also gave a residual activity ([5]; compound 10.0 µM, ATP 20 µM) of 37%, a residual activity ([5]; compound 10.0 µM, ATP 100 µM) of 55% and a residual activity ([6]; compound 0.1 µM) of 103%. It also gave a residual activity ([6]; compound 1.0 µM) of 99%, a residual activity ([6]; compound 10.0 µM) of 96% and a residual activity ([7]; compound 0.1 µM) of 90%. The residual activity ([7]; compound 1.0 µM) was 73%, the residual activity ([7]; compound 10.0 µM) was 78% and the residual activity ([8]; compound 0.1 µM) was 94%. The residual activity ([8]; compound 1.0 µM) was 101%, the residual activity ([8]; compound 10.0 µM) was 87% and the residual activity ([9]; compound 0.1 µM) was 108%. It also gave a residual activity ([9]; compound 1.0 µM) of 86%, a residual activity ([9]; compound 10.0 µM) of 88% and a residual activity ([10]; compound 0.1 µM) of 92%. For the same compound, the residual activity ([10]; compound 1.0 µM) was 93%, the residual activity ([10]; compound 10.0 µM) was 79% and the residual activity ([11]; compound 0.1 µM) was 92%. The residual activity ([11]; compound 1.0 µM) was 93%, the residual activity ([11]; compound 10.0 µM) was 98% and the residual activity ([12]; compound 0.1 µM) was 87%. It also gave a residual activity ([12]; compound 1.0 µM) of 69%, a residual activity ([12]; compound 10.0 µM) of 52% and a residual activity ([13]; compound 0.1 µM, ATP 5 µM) of 88%. For the same compound, the residual activity ([13]; compound 0.1 µM, ATP 50 µM) was 93%, the residual activity ([13]; compound 1.0 µM, ATP 5 µM) was 96% and the residual activity ([13]; compound 1.0 µM, ATP 50 µM) was 85%. The residual activity ([13]; compound 10.0 µM, ATP 5 µM) was 77%, the residual activity ([13]; compound 10.0 µM, ATP 50 µM) was 86% and the residual activity ([14]; compound 0.1 µM) was 98%. For the same compound, the residual activity ([14]; compound 1.0 µM) was 87%, the residual activity ([14]; compound 10.0 µM) was 88% and the residual activity ([15]; compound 0.1 µM) was 95%. It also gave a residual activity ([15]; compound 1.0 µM) of 79%, a residual activity ([15]; compound 10.0 µM) of 87% and a residual activity ([16]; compound 0.1 µM) of 86%. For the same compound, the residual activity ([16]; compound 1.0 µM) was 79%, the residual activity ([16]; compound 10.0 µM) was 86% and the residual activity ([17]; compound 1.0 µM) was 103%. The residual activity ([17]; compound 10.0 µM) was 99%, the IC50 [18] was 65 µM and the residual activity ([19]; compound 0.1 µM) was 88%. For the same compound, the residual activity ([19]; compound 1.0 µM) was 89%, the residual activity ([19]; compound 10.0 µM) was 97% and the residual activity ([20]; compound 0.1 µM) was 100%. For the same compound, the residual activity ([20]; compound 1.0 µM) was 88%, the residual activity ([20]; compound 10.0 µM) was 46% and the residual activity ([21]; compound 0.1 µM) was 99%. For the same compound, the residual activity ([21]; compound 1.0 µM) was 94%, the residual activity ([21]; compound 10.0 µM) was 85% and the residual activity ([22]; compound 0.1 µM, ATP 20 µM) was 90%. It also gave a residual activity ([22]; compound 0.1 µM, ATP 50 µM) of 94%, a residual activity ([22]; compound 1.0 µM, ATP 20 µM) of 86% and a residual activity ([22]; compound 1.0 µM, ATP 50 µM) of 83%. The residual activity ([22]; compound 10.0 µM, ATP 20 µM) was 95%, the residual activity ([22]; compound 10.0 µM, ATP 50 µM) was 67% and the residual activity ([23]; compound 0.1 µM) was 100%. It also gave a residual activity ([23]; compound 1.0 µM) of 89%, a residual activity ([23]; compound 10.0 µM) of 93% and a residual activity ([24]; compound 0.1 µM) of 58%. It also gave a residual activity ([24]; compound 1.0 µM) of 23%, a residual activity ([24]; compound 10.0 µM) of 7% and a residual activity ([25]; compound 0.1 µM) of 85%. The residual activity ([25]; compound 1.0 µM) was 83%, the residual activity ([25]; compound 10.0 µM) was 71% and the residual activity ([26]; compound 0.1 µM) was 119%. The residual activity ([26]; compound 1.0 µM) was 106%, the residual activity ([26]; compound 10.0 µM) was 62% and the residual activity ([27]; compound 0.1 µM) was 91%. For the same compound, the residual activity ([27]; compound 1.0 µM) was 92% and the residual activity ([27]; compound 10.0 µM) was 88%.

Source: the kinase profiling compilation of Christmann-Franck et al. (2016)
